Test results: ChEMBL document CHEMBL5653631, “A Potent and Selective ULK1 Inhibitor Suppresses Autophagy and Sensitizes Cancer Cells to Nutrient Stress” (iScience, 2018)

Columns and labels:
[1] = target: T1, Ephrin type-B receptor 3 (Homo sapiens) (UniProt P54753); test: Inhibition of human recombinant EphB3 at 40 nM in presence of ATP by radiometric assay relative to control
T1 sequence (whole entry): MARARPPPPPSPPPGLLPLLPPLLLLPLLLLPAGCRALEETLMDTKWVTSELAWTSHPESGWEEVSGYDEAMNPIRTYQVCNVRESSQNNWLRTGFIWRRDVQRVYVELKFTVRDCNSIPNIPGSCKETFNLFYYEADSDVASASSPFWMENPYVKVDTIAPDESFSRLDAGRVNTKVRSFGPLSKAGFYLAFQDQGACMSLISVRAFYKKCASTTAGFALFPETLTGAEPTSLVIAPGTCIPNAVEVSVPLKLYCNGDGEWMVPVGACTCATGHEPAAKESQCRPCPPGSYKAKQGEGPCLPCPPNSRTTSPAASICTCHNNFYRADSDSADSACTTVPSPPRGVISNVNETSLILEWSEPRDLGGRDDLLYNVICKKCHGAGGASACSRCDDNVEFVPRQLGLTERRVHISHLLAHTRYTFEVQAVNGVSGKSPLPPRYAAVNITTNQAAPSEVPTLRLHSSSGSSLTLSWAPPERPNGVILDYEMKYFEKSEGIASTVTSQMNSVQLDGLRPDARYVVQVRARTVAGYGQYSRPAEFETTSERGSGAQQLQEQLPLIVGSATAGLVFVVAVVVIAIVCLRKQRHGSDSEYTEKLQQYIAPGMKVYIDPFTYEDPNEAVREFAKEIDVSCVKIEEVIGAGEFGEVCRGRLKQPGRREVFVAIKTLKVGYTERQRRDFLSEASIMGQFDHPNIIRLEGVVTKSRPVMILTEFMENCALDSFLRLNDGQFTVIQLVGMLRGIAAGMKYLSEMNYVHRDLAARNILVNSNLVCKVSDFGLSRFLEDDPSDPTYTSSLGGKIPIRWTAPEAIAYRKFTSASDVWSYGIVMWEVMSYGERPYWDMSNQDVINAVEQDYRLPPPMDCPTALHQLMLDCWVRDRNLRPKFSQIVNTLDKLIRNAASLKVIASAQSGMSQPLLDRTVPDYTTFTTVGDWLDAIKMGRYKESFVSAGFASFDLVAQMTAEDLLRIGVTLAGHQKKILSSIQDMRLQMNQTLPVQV

[2] = target: Tyrosine-protein kinase Tec (Homo sapiens) (UniProt P42680); test: Inhibition of human recombinant TEC at 40 nM related to control ULK1
Chain of Tyrosine-protein kinase Tec (Homo sapiens) (P42680 whole entry, looked up): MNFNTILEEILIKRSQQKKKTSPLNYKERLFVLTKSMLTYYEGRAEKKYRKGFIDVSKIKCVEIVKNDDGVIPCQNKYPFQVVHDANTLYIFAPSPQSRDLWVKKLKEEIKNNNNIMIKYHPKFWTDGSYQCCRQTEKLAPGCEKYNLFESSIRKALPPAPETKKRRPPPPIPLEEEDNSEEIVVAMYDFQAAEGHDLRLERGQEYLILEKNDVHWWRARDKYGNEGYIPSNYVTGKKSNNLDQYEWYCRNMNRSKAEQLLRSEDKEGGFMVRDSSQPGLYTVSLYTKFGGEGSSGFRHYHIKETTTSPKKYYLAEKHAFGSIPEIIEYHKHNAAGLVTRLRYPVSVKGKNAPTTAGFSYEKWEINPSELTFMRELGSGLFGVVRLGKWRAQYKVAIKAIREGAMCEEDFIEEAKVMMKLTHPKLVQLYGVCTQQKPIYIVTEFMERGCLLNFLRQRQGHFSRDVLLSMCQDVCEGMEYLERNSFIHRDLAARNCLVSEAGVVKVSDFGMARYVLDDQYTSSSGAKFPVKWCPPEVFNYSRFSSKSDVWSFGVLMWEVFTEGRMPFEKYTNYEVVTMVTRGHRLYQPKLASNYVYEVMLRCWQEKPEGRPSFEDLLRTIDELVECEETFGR

[3] = target: Tyrosine-protein kinase JAK1 (Homo sapiens) (UniProt P23458); test: Inhibition of human recombinant JAK1 at 15 nM related to control ULK1
Chain of Tyrosine-protein kinase JAK1 (Homo sapiens) (P23458 whole entry): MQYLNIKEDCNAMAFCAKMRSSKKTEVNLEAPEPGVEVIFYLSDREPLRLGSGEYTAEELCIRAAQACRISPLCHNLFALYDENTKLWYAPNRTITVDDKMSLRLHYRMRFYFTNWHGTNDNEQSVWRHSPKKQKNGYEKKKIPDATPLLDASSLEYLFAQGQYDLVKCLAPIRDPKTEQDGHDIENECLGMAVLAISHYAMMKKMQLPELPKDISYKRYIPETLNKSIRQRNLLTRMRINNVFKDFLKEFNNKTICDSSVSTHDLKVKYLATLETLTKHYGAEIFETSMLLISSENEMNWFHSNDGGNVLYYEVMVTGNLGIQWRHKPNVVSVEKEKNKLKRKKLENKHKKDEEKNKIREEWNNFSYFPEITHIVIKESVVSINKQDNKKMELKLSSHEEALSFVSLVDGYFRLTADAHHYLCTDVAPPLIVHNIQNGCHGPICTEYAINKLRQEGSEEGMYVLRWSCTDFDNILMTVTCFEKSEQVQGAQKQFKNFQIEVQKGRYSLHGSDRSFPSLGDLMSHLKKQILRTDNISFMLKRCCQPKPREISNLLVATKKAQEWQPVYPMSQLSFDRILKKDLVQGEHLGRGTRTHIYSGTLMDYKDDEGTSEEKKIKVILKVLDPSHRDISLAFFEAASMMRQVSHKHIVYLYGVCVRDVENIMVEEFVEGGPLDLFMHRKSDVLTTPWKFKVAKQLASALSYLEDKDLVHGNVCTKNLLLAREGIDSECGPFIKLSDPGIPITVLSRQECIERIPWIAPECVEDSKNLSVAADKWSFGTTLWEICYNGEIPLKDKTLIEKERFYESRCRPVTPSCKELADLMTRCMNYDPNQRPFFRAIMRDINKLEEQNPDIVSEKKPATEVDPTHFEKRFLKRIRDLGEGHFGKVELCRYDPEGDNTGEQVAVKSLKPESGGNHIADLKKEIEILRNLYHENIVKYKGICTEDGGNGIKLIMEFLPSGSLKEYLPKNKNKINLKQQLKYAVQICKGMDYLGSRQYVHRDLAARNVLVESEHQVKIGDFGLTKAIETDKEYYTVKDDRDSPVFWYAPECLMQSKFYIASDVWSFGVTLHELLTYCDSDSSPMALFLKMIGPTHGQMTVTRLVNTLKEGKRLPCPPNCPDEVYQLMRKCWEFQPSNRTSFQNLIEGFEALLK

[4] = target: Calcium/calmodulin-dependent protein kinase type II subunit beta (Homo sapiens) (UniProt Q13554); test: Inhibition of human recombinant CaMK2b at 500 nM related to control ULK1
Chain of Calcium/calmodulin-dependent protein kinase type II subunit beta (Homo sapiens) (Q13554 whole entry): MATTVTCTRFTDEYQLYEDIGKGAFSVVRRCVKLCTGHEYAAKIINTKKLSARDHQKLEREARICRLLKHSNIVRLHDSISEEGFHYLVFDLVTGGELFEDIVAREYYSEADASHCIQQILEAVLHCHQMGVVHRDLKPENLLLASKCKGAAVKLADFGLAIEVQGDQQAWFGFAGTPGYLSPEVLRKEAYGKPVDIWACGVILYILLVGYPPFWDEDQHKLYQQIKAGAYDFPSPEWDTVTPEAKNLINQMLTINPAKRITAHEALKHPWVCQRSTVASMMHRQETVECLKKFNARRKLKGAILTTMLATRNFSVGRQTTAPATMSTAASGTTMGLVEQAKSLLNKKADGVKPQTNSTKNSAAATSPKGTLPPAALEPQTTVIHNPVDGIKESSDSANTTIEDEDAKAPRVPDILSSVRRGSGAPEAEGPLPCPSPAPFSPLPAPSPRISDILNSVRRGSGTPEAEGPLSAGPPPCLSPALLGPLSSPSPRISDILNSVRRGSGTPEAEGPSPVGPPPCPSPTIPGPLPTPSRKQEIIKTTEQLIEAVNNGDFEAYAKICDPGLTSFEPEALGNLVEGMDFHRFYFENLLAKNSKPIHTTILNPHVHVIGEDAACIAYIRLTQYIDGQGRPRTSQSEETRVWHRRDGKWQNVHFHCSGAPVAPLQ

[5] = target: Vascular endothelial growth factor receptor 2 (Homo sapiens) (UniProt P35968); test: Inhibition of human recombinant KDR at 500 nM in presence of ATP by radiometric assay relative to control
Chain of Vascular endothelial growth factor receptor 2 (Homo sapiens) (P35968 whole entry): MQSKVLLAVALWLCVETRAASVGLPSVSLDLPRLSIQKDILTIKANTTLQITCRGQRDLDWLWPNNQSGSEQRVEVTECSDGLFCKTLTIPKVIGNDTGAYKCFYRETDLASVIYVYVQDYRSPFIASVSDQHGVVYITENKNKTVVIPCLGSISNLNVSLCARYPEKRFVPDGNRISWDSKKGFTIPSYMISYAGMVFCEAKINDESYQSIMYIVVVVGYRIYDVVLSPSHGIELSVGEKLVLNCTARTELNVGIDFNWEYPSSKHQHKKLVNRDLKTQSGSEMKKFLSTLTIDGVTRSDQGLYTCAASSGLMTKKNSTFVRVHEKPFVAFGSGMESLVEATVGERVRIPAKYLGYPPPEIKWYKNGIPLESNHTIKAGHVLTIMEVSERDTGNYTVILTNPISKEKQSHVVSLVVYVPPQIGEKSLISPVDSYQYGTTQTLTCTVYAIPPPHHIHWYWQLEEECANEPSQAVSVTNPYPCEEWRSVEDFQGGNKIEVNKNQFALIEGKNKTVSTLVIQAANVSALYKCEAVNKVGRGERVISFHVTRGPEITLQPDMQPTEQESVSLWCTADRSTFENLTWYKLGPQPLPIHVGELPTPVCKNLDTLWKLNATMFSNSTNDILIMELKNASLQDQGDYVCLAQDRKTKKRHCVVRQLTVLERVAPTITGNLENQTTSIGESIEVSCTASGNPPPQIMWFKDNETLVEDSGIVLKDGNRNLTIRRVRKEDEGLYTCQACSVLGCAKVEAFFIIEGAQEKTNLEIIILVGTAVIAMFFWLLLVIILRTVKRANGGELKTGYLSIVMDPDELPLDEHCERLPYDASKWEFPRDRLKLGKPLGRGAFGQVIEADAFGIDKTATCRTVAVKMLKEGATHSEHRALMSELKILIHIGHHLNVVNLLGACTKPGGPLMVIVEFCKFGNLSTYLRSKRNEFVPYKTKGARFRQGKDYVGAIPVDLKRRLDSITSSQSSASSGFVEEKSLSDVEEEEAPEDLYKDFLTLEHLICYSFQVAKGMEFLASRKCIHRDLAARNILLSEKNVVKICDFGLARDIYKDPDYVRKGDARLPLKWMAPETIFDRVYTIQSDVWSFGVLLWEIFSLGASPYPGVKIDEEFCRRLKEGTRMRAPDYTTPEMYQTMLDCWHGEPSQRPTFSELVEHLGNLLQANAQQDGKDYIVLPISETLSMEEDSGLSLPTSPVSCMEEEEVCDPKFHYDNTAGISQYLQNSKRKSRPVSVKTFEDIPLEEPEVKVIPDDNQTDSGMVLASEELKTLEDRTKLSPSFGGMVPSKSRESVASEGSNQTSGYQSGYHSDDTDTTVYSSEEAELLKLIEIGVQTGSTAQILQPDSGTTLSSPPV

[6] = target: T2, cGMP-dependent protein kinase 2 (Homo sapiens) (UniProt Q13237); test: Inhibition of human recombinant PKG2 at 500 nM in presence of ATP by radiometric assay relative to control
T2 sequence (whole entry): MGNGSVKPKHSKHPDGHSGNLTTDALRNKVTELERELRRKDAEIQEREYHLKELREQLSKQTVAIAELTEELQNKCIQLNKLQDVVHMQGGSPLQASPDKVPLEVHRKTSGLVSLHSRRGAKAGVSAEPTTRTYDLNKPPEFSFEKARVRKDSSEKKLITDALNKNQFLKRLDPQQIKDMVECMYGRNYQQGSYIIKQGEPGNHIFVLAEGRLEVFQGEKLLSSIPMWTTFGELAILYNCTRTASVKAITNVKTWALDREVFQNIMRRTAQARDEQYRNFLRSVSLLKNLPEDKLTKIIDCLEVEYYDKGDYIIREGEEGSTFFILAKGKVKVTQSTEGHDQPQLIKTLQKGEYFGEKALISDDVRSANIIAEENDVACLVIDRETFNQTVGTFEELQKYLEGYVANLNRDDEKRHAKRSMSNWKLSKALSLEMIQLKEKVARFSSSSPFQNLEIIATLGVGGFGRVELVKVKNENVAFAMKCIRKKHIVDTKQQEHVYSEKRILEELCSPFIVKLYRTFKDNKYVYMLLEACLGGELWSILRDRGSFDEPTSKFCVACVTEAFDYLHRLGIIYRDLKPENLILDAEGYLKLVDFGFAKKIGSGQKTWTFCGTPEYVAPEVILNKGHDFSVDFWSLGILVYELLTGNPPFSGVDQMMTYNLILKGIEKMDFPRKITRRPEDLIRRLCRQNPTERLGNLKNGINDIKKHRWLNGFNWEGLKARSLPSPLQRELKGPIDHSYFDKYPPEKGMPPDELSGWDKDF

O=C(N[C@@H](C1CC1)C(F)(F)F)c1cc(-c2cnn3cc(-c4ccc(F)cc4)cnc23)cs1
inhibition [1]: 0% | fold change (FC) [2]: 0

CC(C)[C@H](NC(=O)c1cc(-c2cnn3cc(-c4ccc(OCCN5CCCCC5)cc4)cnc23)cs1)C(F)(F)F
fold change (FC) [3]: 0

CNC(=O)c1ccccc1Oc1nc(Nc2cc(OC)c(OC)c(OC)c2)ncc1Br
fold change (FC) [4]: 0 | inhibition [5]: 0% | inhibition [6]: 2%
